ChEMBL document CHEMBL1201862, “PubChem BioAssay data set” (2004)
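These data come from cells grown in 96-well plates and exposed to compound for 48 hours at five concentrations. GI50: concentration for 50% inhibition of growth.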 Calls of active or inactive are those of the source. Rule as the data show it: active = GI50 up to about 1.1 µM and inactive = higher.

How the values were obtained:
Assay in all cases: DTP human tumour cell line panel, 48 h
ACHN = tested on: ACHN
COLO 205 = tested on: COLO 205
HCT-116 = tested on: HCT-116
HL-60 = tested on: HL-60
HOP-92 = tested on: HOP-92
HT-29 = tested on: HT-29
K562 = tested on: K562
KM12 = tested on: KM12
OVCAR-5 = tested on: OVCAR-5
SK-MEL-5 = tested on: SK-MEL-5
SN12C = tested on: SN12C
SNB-75 = tested on: SNB-75
TK-10 = tested on: TK-10
MCF7 = tested on: MCF7
PC-3 = tested on: PC-3
DU-145 = tested on: DU-145
MDA-MB-231 = tested on: MDA-MB-231
NCI/ADR-RES = tested on: NCI/ADR-RES
Hs-578T = tested on: Hs-578T

Measured: GI50

CCC1(O)C(=O)OCc2c1cc1n(c2=O)Cc2cc3cc(OC)c(OC)cc3nc2-1 (stereo not drawn)
inactive: ACHN 4.5 µM | COLO 205 32.6 µM | HCT-116 22.3 µM | HL-60 12 µM | HOP-92 > 100 µM | HT-29 > 100 µM | K562 78.5 µM | KM12 > 100 µM | OVCAR-5 > 100 µM | SK-MEL-5 17.5 µM | SN12C 5.5 µM | SNB-75 15 µM | TK-10 > 100 µM

O=[N+]([O-])c1ccc(Cl)c2c([N+](=O)[O-])cccc12
inactive: COLO 205 4.57 µM | HCT-116 1.76 µM | HL-60 2.48 µM | HOP-92 3.96 µM | HT-29 3.26 µM | K562 4.02 µM | KM12 3.2 µM | MCF7 4.43 µM | PC-3 7.85 µM | SK-MEL-5 2.33 µM | SN12C 4.56 µM | SNB-75 5.38 µM | TK-10 9.57 µM

Cc1ccc(NC(=O)C(=O)C(C(=O)c2ccc3ccccc3c2)C2OC(=O)c3ccccc32)cc1C (stereo not drawn)
inactive: ACHN 32 µM | COLO 205 16.6 µM | HCT-116 11.8 µM | HL-60 8.87 µM | HOP-92 14 µM | HT-29 33 µM | K562 13.8 µM | KM12 19.5 µM | OVCAR-5 23.9 µM | SK-MEL-5 15.2 µM | SN12C 18.9 µM | SNB-75 2.98 µM | TK-10 34.8 µM

N#CC(C(=O)c1ccccc1F)c1nc2cc(C(F)(F)F)ccc2s1 (stereo not drawn)
inactive: ACHN 27.5 µM | COLO 205 20.9 µM | DU-145 28.3 µM | HCT-116 19.2 µM | HOP-92 19.1 µM | HT-29 17.6 µM | KM12 32.5 µM | MDA-MB-231 31 µM | NCI/ADR-RES 19.7 µM | OVCAR-5 21.2 µM | SK-MEL-5 20.8 µM | SN12C 23.1 µM | SNB-75 14.6 µM | TK-10 30.8 µM

Cc1ccc2c(c1)NC(c1ccc(C(=O)O)cc1)c1cccn1-2 (stereo not drawn)
inactive: ACHN 19.3 µM | COLO 205 > 100 µM | DU-145 26 µM | HCT-116 47.9 µM | HT-29 78.3 µM | K562 > 100 µM | KM12 30.7 µM | MCF7 25.1 µM | MDA-MB-231 37.2 µM | OVCAR-5 > 100 µM | PC-3 32.7 µM | SK-MEL-5 > 100 µM | SN12C 69.7 µM | SNB-75 18.7 µM | TK-10 30.8 µM

COc1cc(/C=C2/SC(c3ccccc3)N(c3cc(Cl)ccc3Cl)C2=O)cc(OC)c1OC (stereo not drawn)
inactive: ACHN > 100 µM | COLO 205 > 100 µM | DU-145 > 100 µM | HCT-116 46.3 µM | HL-60 51.9 µM | HOP-92 > 100 µM | HT-29 > 100 µM | K562 59 µM | KM12 35.7 µM | MCF7 30.8 µM | MDA-MB-231 > 100 µM | NCI/ADR-RES 64.4 µM | OVCAR-5 > 100 µM | PC-3 65.5 µM | SK-MEL-5 59.7 µM | SN12C > 100 µM | SNB-75 45.1 µM | TK-10 > 100 µM

CC1(CCCCO)C=CC(S(=O)(=O)c2ccccc2)CC1 (stereo not drawn)
inactive: ACHN 5.57 µM | COLO 205 4.37 µM | DU-145 5.14 µM | HCT-116 4.15 µM | HOP-92 2.84 µM | HT-29 1.82 µM | K562 3.24 µM | KM12 1.86 µM | MCF7 3.15 µM | MDA-MB-231 4.31 µM | NCI/ADR-RES 2.59 µM | OVCAR-5 4.85 µM | PC-3 4.11 µM | SK-MEL-5 4.27 µM | SN12C 11 µM | SNB-75 1.46 µM | TK-10 6.97 µM

CC1=C(c2cc(C(=O)Nc3cccc(C(F)(F)F)c3)ncn2)Sc2ccccc2N1
inactive: ACHN > 100 µM | COLO 205 > 100 µM | HCT-116 > 100 µM | HL-60 > 100 µM | HOP-92 > 100 µM | HT-29 > 100 µM | K562 > 100 µM | KM12 > 100 µM | SK-MEL-5 > 100 µM | SN12C > 100 µM | SNB-75 58.9 µM | TK-10 > 100 µM

Cc1cccc2c1C/C(=C1\CCc3c(C)cccc31)C2=O
inactive: ACHN > 100 µM | COLO 205 > 100 µM | HCT-116 > 100 µM | HL-60 > 100 µM | HT-29 > 100 µM | K562 > 100 µM | KM12 > 100 µM | OVCAR-5 > 100 µM | SK-MEL-5 > 100 µM | SN12C > 100 µM | SNB-75 80.9 µM | TK-10 > 100 µM

CN(C)C1(N(C)C)Oc2c(c(=O)n(C)c(=O)n2C)C(c2ccc(C(F)(F)F)cc2)C1(F)F (stereo not drawn)
inactive: ACHN > 100 µM | COLO 205 > 100 µM | DU-145 > 100 µM | HCT-116 > 100 µM | HOP-92 > 100 µM | K562 > 100 µM | KM12 > 100 µM | MCF7 > 100 µM | MDA-MB-231 > 100 µM | NCI/ADR-RES > 100 µM | OVCAR-5 > 100 µM | PC-3 > 100 µM | SK-MEL-5 > 100 µM | SNB-75 > 100 µM | TK-10 > 100 µM

CC1C2=C(O)CC(C)(C)CC2=NC2=C1C(=O)CC(C)(C)C2 (stereo not drawn)
inactive: ACHN > 100 µM | HL-60 > 100 µM | HOP-92 > 100 µM | HT-29 > 100 µM | Hs-578T > 100 µM | K562 91.8 µM | KM12 > 100 µM | MCF7 > 100 µM | NCI/ADR-RES > 100 µM | OVCAR-5 > 100 µM | PC-3 > 100 µM | SK-MEL-5 > 100 µM | SN12C > 100 µM | SNB-75 83 µM | TK-10 > 100 µM

CCOC(=O)CSc1[nH]c2nc(C)nc(Cl)c2c1C#N
inactive: COLO 205 > 10 µM | DU-145 > 10 µM | HL-60 > 10 µM | HOP-92 > 10 µM | HT-29 > 10 µM | K562 > 10 µM | KM12 > 10 µM | MCF7 > 10 µM | MDA-MB-231 > 10 µM | PC-3 > 10 µM | SK-MEL-5 > 10 µM | SN12C > 10 µM | SNB-75 > 10 µM | TK-10 > 10 µM

C=CCNC(=O)N(CCCCC(NC(C)=O)C(=O)NCc1ccccc1)Cc1ccccc1 (stereo not drawn)
inactive: ACHN > 100 µM | COLO 205 > 100 µM | HL-60 > 100 µM | HOP-92 65.8 µM | HT-29 > 100 µM | K562 > 100 µM | KM12 > 100 µM | OVCAR-5 > 100 µM | SK-MEL-5 > 100 µM | SN12C > 100 µM | SNB-75 > 100 µM | TK-10 > 100 µM

CCOC(=O)C(C)(C)Oc1ccc2c(=O)cc(-c3ccc(Cl)cc3)oc2c1
inactive: ACHN > 100 µM | COLO 205 > 100 µM | HCT-116 > 100 µM | HL-60 > 100 µM | HT-29 > 100 µM | K562 > 100 µM | SK-MEL-5 > 100 µM | SN12C > 100 µM | SNB-75 38.4 µM | TK-10 > 100 µM
